Data taken from US12599128B2, “Composition and method for improving agronomic traits of a plant” (THE BOARD OF TRUSTEES OF THE UNIVERSITY OF ILLINOIS, priority 2024, dated 2026).

How the values were obtained:
Type in all cases: in vivo
[1] = tested on: soybean plants (shoot apical meristem); test: Field trial 3: soybean seed production after spraying the shoot apical meristem
Description: FIG. 3 provides an example of an increase in soybean seed production following the removal of apical dominance by spraying with a double pass of 0.1M methyl decanoate (97.85±4.43 seeds/plant on average) at the V4-V6 stage of growth compared to untreated controls (79.81±3.09 seeds/plant on average) conducted in Lowell, Indiana. […] Asterisks show significance differences at the 0.05 level.
Field trial 3 was conducted in Lowell, Indiana and a single soybean variety was tested. Soybean plants were treated with a double pass of methyl decanoate at a concentration of 0.10 M. The methyl decanoate spray contained an undiluted surfactant, polyoxyethylene sorbitan monolaurate, that was added in equal weight to the fatty ester.
Soybean plants were treated the methyl decanoate spray using a backpack spray unit. Soybeans were sprayed in between growth stages V4-V6. The test plots were 21 rows by 50 feet.

[2] = tested on: soybean plants (shoot apical meristem); test: Field trial 1: soybean seed production after spraying the shoot apical meristem
Description: FIG. 1 provides an example of an increase in soybean seed production following the removal of apical dominance by spraying with a double pass of 0.1M methyl decanoate (199.0±14.14 seeds/plant on average) at the V5 stage of growth compared to untreated controls (160.47±5.33 seeds/plant on average) conducted in Pleasant Plains, Illinois. […] Asterisks show significance differences at the 0.05 level.
Field trial 1 was conducted in Pleasant Plants, Illinois. A single soybean variety was used in the field trial. The soybean variety was planted in 20 plots. Each plot was composed of 8 rows of plants spaced 30 inches apart and was 50 feet long by 20 feet wide. Soybeans were treated with 0.10 M methyl decanoate spray. An undiluted surfactant, polyoxyethylene sorbitan monolaurate, was added in equal weight to the fatty ester. Additional spray was applied by completion of a second pass with 0.10 M methyl decanoate spray. The second pass was completed immediately after the initial treatment of each row to saturate the apical meristem.
Soybean plants were sprayed using an individual chemical spray backpack. The plants were sprayed with approximately 2.5 gallons/1000 sq feet of 0.1 M (or an equivalent of 110 gallons/acre) with the double pass. Soybean plants were sprayed with methyl decanoate at the V5 growth stage.
The overall experiment was designed to distribute untreated control plots and mechanically clipped plants at the same growth stage with the methyl decanoate treated variety across the test field.

[3] = tested on: soybean plants (shoot apical meristem); test: Field trial 2: soybean seed production after spraying the shoot apical meristem
Description: FIG. 2 provides an example of an increase in soybean seed production following the removal of apical dominance by spraying with a double pass of 0.1M methyl decanoate (220.6±21.96 seeds/plant on average) at the V3 stage of growth compared to untreated controls (147.88±13.59 seeds/plant on average) conducted in Mt. Pulaski, Illinois. […] Asterisks show significance differences at the 0.05 level, + indicates a marginally significant difference at <0.10.
Field trial 2 was conducted at GroAlliance in Mt Pulaski, Illinois and planted with a soybean variety. Soybean plants were treated with a spray containing 0.10 M methyl decanoate and polyethylene sorbitan monolaurate. Soybean plants were sprayed using individual chemical backpack spray units. The soybean plants were treated with methyl decanoate at or between the growth stages of V3 and V4.
The test field was subdivided into plots with the dimensions of five rows by 10 feet. Two plots were designated for each soybean variety for spray treatment and distributed geographically across the full test field. Untreated control plots and mechanically clipped plants at the same growth stage were adjacent to the test plot areas.

CCCCCCCCCC(=O)OC [methyl decanoate]
seed yield compared to untreated control plants (in words) ([1]; double pass 0.10 M spray with polyoxyethylene sorbitan monolaurate, V4-V6): increased seed yield | higher seed production than the untreated control ([1]; double pass of 0.1M spray at V4-V6 stage, Lowell, Indiana, F=5.63, p=0.005): 22.6% | soybean seed production (seeds/plant on average) ([1]; double pass of 0.1M spray at V4-V6 stage, Lowell, Indiana, untreated controls 79.81±3.09): 97.85±4.43 seeds/plant | seed yield compared to untreated control plants (in words) ([2]; 0.10 M spray with polyoxyethylene sorbitan monolaurate, V5 growth stage): increased seed yield | higher seed production than the untreated control ([2]; double pass of 0.1M spray at V5 stage, Pleasant Plains, Illinois, F=3.33, p=0.046): 24% | soybean seed production (seeds/plant on average) ([2]; double pass of 0.1M spray at V5 stage, Pleasant Plains, Illinois, untreated controls 160.47±5.33): 199.0±14.14 seeds/plant | seed yield compared to untreated control plants (in words) ([3]; 0.10 M spray with surfactant, at or between V3 and V4): increased seed yield | higher seed production than the untreated control ([3]; double pass of 0.1M spray at V3 stage, Mt. Pulaski, Illinois, F=2.74, p=0.084): 38.4% | soybean seed production (seeds/plant on average) ([3]; double pass of 0.1M spray at V3 stage, Mt. Pulaski, Illinois, untreated controls 147.88±13.59): 220.6±21.96 seeds/plant
